Data as given in patent EP4610269A1, “UROKINASE PLASMINOGEN ACTIVATOR SURFACE RECEPTOR (UPAR) LIGANDS FOR DIAGNOSTIC OR THERAPEUTIC USE” (3B Pharmaceuticals GmbH, priority 2024, dated 2025).
*1 amine or outer side, *2 acyl side, *3 side chain or, on linkers, in order; H or OH if unused. Where a SMILES comes first, the peptide text is derived from it. Bridges are numbered along the chain shown (N, C = ends). Side-chain parts run from the residue outwards. [ ]: non-standard residue; d: D form. The star is where a group is joined. X4 = C[N+](C)(CCCC[C@H](NC(=O)CN1CCN(CC(=O)O)CCN(CC(=O)O)CCN(CC(=O)O)CC1)C(=O)*)CCCS(=O)(=O)[O-]; DOTA = O=C(O)CN1CCN(CC(=O)O)CCN(CC(=O)*)CCN(CC(=O)O)CC1; Pro(cis-4-F) = O=C(O)[C@@H]1C[C@H](F)CN1; Ethylenediamine = C(CN[*:2])N[*:1]; mTyr = N[C@@H](Cc1cccc(O)c1)C(=O)O; Hyp = O=C(O)[C@@H]1C[C@@H](O)CN1; αMeF = C[C@](N)(Cc1ccccc1)C(=O)O; Pentanoyl(4-Me) = CC(C)CCC(=O)*; Cit = NC(=O)NCCC[C@H](N)C(=O)O; Aic = NC1(C(=O)O)Cc2ccccc2C1; Butoxycarbonyl = CCCCOC(=O)*; NMeNle = CCCC[C@H](NC)C(=O)O; Nle = CCCC[C@H](N)C(=O)O; Orn = NCCC[C@H](N)C(=O)O; Aze = O=C(O)[C@@H]1CCN1; Nva = CCC[C@H](N)C(=O)O; Pentanoyl = CCCCC(=O)*; Aib = CC(C)(N)C(=O)O

Legend:
[1] = target: T1, uPAR-expressing HEC-265 human endometrial adenocarcinoma cells (Homo sapiens, UniProt Q03405); experiment: Competitive FACS binding assay; details: pIC50 category of FACS binding
T1 construct: Cell surface uPAR-expressing HEC-265 human endometrial adenocarcinoma cells; host or cells: HEC-265
Outline: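 HEC-265 cells incubated 1 h at 4 °C with 10 nM biotinylated uPAR peptide tracer plus increasing test compound, then stained with APC-streptavidin on ice. Median APC fluorescence by flow cytometry; 4PL fit gives pIC50.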

human uPAR (uPAR-Fc) = target: T2, human uPAR (uPAR-Fc) (Homo sapiens, UniProt Q03405); experiment: Surface plasmon resonance (SPR) assay, single cycle kinetics; format: binding; details: pKD category for uPAR SPR activity assay; uPAR-Fc on Protein A-Chip, single cycle kinetics, 25°C; read-out: pKD CAT (converted)
T2 construct: comprising amino acids Leu23-Arg303 according to UniProt entry Q03405.1; purchased R&D Systems 10378-UK-100
Outline: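 uPAR-Fc (Leu23-Arg303 extracellular domains, human IgG1 Fc) captured on Protein A chip to ~2000 RU; single-cycle kinetics at 25°C in HEPES running buffer pH 7.4 with 0.1% DMSO. KD from double-referenced sensorgrams fitted to 1:1 Langmuir model, reported as pKD.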

T1 sequence (Q03405 23-335): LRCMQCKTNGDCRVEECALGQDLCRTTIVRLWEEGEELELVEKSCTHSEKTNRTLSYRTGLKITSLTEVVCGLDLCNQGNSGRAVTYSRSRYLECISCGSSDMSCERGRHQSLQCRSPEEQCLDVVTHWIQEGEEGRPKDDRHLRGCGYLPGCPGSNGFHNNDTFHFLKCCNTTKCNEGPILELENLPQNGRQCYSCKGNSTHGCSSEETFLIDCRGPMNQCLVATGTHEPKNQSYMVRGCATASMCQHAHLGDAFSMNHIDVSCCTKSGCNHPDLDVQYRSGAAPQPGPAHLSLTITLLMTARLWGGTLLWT
T2 sequence (Q03405 23-303): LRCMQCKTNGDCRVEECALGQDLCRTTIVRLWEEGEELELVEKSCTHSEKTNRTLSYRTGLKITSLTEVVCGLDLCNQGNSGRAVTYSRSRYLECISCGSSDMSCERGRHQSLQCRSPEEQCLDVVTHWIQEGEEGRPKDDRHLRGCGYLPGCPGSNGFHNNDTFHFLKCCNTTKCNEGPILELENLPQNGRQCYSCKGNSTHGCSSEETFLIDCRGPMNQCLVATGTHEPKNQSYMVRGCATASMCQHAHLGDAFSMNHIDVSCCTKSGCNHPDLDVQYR

SMILES	IC50 [1]	Kd (human uPAR (uPAR-Fc))
CCCCOC(=O)N[C@H]1CSSC[C@@H](C(N)=O)NC(=O)[C@H](CCC)NC(=O)[C@H]([C@@H](C)CC)NC(=O)[C@@H]2C[C@@H](O)CN2C(=O)[C@@H]2C[C@H](F)CN2C(=O)[C@H](Cc2ccccc2)NC(=O)[C@H](Cc2cccc(O)c2)NC(=O)[C@H](CCCNC(=O)CN2CCN(CC(=O)O)CCN(CC(=O)O)CCN(CC(=O)O)CC2)NC(=O)[C@H]([C@@H](C)O)NC1=O [UPAR-415, Butoc-[Cys-Thr-Orn(DOTA)-My-Phe-4Cfp-Hyp-Ile-Nva-Cys]-NH2] (Butoxycarbonyl-CT[Orn](DOTA)[mTyr]F[Pro(cis-4-F)][Hyp]I[Nva]C-NH2; disulfide 1-10)	≤ 10 nM	< 1.58 nM
CCCC[C@@H]1NC(=O)[C@H](CCCNC(=N)N)NC(=O)[C@@H](NC(=O)[C@H](CC(C)C)NC(=O)[C@H](CC(=O)O)NC(C)=O)CSSC[C@@H](C(N)=O)NC(=O)[C@H](CC(C)C)NC(=O)[C@@H](CC(C)C)NC(=O)[C@H](C)NC(=O)[C@@H]2CCCN2C(=O)[C@H](Cc2ccccc2)NC(=O)[C@H](Cc2ccc(O)cc2)NC1=O [UPAR-420, Ac-Asp-Leu-[Cys-Arg-Nle-Tyr-Phe-Pro-Ala-leu-Leu-Cys]-NH2] (Ac-DLCR[Nle]YFPA[dL]LC-NH2; disulfide 3-12)	39.8 to 100 nM	10 to 100 nM
CCCCOC(=O)N[C@H]1CSSC[C@@H](C(N)=O)NC(=O)[C@H](CCC)NC(=O)[C@H]([C@@H](C)CC)NC(=O)[C@@H]2C[C@@H](O)CN2C(=O)[C@@H]2C[C@H](F)CN2C(=O)[C@H](Cc2ccccc2)NC(=O)[C@H](Cc2ccc(O)cc2)NC(=O)[C@H](CCCCNC(=O)[C@H](CCCC[N+](C)(C)CCCS(=O)(=O)[O-])NC(=O)CN2CCN(CC(=O)O)CCN(CC(=O)O)CCN(CC(=O)O)CC2)NC(=O)[C@H]([C@@H](C)O)NC1=O [UPAR-422, Butoc-[Cys-Thr-Lys(DOTA-Kzw)-Tyr-Phe-4Cfp-Hyp-Ile-Nva-Cys]-NHz] (Butoxycarbonyl-CTK(X4)YF[Pro(cis-4-F)][Hyp]I[Nva]C-NH2; disulfide 1-10)	≤ 10 nM	< 1.58 nM
CC[C@H](C)[C@@H]1NC(=O)[C@H](CCCNC(=N)N)NC(=O)[C@@H]2CCCN2C(=O)[C@H](Cc2ccccc2)NC(=O)[C@H](Cc2ccc(O)cc2)NC(=O)[C@H](CCCCNC(=O)CN2CCN(CC(=O)O)CCN(CC(=O)O)CCN(CC(=O)O)CC2)NC(=O)[C@H](CCCNC(N)=O)NC(=O)[C@@H](NC(=O)[C@H](CC(C)C)NC(=O)[C@H](CC(=O)O)NC(C)=O)CSSC[C@@H](C(N)=O)NC(=O)[C@H](CC(C)C)NC1=O [UPAR-423, Ac-Asp-Leu-[Cys-Cit-Lys(DOTA)-Tyr-Phe-Pro-Arg-Ile-Leu-Cys]-NH2] (Ac-DLC[Cit]K(DOTA)YFPRILC-NH2; disulfide 3-12)	≤ 10 nM	< 1.58 nM
CCCCOC(=O)N[C@H]1CSSC[C@@H](C(N)=O)NC(=O)[C@H](CCC)NC(=O)[C@H]([C@@H](C)CC)NC(=O)[C@@H]2C[C@@H](O)CN2C(=O)[C@@H]2C[C@H](F)CN2C(=O)[C@H](Cc2ccccc2)NC(=O)[C@H](Cc2ccc(O)cc2)NC(=O)[C@H](CCCCNC(=O)[C@@H](CC(=O)O)NC(=O)CN2CCN(CC(=O)O)CCN(CC(=O)O)CCN(CC(=O)O)CC2)NC(=O)[C@H]([C@@H](C)O)NC1=O [UPAR-424, Butoc-[Cys-Thr-Lys(DOTA-asp)-Tyr-Phe-4Cfp-Hyp-Ile-Nva-Cys]-NHz] (Butoxycarbonyl-CTK([dD-DOTA])YF[Pro(cis-4-F)][Hyp]I[Nva]C-NH2; disulfide 1-10)	≤ 10 nM	< 1.58 nM
CCCCC(=O)N[C@H]1CSSC[C@@H](C(N)=O)NC(=O)[C@H](CCC)NC(=O)[C@H]([C@@H](C)CC)NC(=O)CNC(=O)[C@@H]2CCCN2C(=O)[C@H](Cc2ccccc2)NC(=O)[C@H](Cc2ccc(O)cc2)NC(=O)[C@H](CCCCNC(=O)CN2CCN(CC(=O)O)CCN(CC(=O)O)CCN(CC(=O)O)CC2)NC(=O)[C@H](CCCNC(N)=O)NC1=O [UPAR-425, Pent-[Cys-Cit-Lys(DOTA)-Tyr-Phe-Pro-Gly-Ile-Nva-Cys]-NH2] (Pentanoyl-C[Cit]K(DOTA)YFPGI[Nva]C-NH2; disulfide 1-10)	≤ 10 nM	< 1.58 nM
CC[C@H](C)[C@@H]1NC(=O)[C@@H](C)NC(=O)[C@@H]2CCN2C(=O)[C@H](Cc2ccccc2)NC(=O)[C@H](Cc2ccc(O)cc2)NC(=O)[C@H](CCC(N)=O)NC(=O)[C@H](CCCNC(N)=O)NC(=O)[C@@H](NC(=O)CCC(C)C)CSSC[C@@H](C(N)=O)NC(=O)[C@H](CC(C)C)NC1=O [UPAR-426, iHex-[Cys-Cit-Gln-Tyr-Phe-Aze-ala-Ile-Leu-Cys]-NH2] ({Pentanoyl(4-Me)}-C[Cit]QYF[Aze][dA]ILC-NH2; disulfide 1-10)	≤ 10 nM	1.58 to 10 nM
CCCC[C@H](NC)C(=O)N[C@H]1CSSC[C@@H](C(N)=O)NC(=O)[C@H](CCC)NC(=O)[C@H]([C@@H](C)CC)NC(=O)[C@@H]2C[C@@H](O)CN2C(=O)[C@@H]2C[C@H](F)CN2C(=O)[C@H](Cc2ccccc2)NC(=O)[C@H](Cc2ccc(O)cc2)NC(=O)[C@H](CCCCNC(=O)CN2CCN(CC(=O)O)CCN(CC(=O)O)CCN(CC(=O)O)CC2)NC(=O)[C@H]([C@@H](C)O)NC1=O [UPAR-428, H-Nmb-[Cys-Thr-Lys(DOTA)-Tyr-Phe-4Cfp-Hyp-Ile-Nva-Cys]-NH2] (H-[NMeNle]CTK(DOTA)YF[Pro(cis-4-F)][Hyp]I[Nva]C-NH2; disulfide 2-11)	≤ 10 nM	< 1.58 nM
CCCC[C@@H]1NC(=O)[C@H](CCCNC(=N)N)NC(=O)[C@@H](NC(=O)[C@H](CC(C)C)NC(=O)[C@H](CC(=O)O)NC(C)=O)CSSC[C@@H](C(N)=O)NC(=O)[C@H](CC(C)C)NC(=O)[C@H]([C@@H](C)CC)NC(=O)[C@@H]2CCCN2C(=O)[C@@H]2CCCN2C(=O)[C@H](Cc2ccccc2)NC(=O)[C@H](Cc2ccc(O)cc2)NC1=O [UPAR-431, Ac-Asp-Leu-[Cys-Arg-Nle-Tyr-Phe-Pro-Pro-Ile-Leu-Cys]-NH2] (Ac-DLCR[Nle]YFPPILC-NH2; disulfide 3-12)	≤ 10 nM	< 1.58 nM
CC[C@H](C)[C@@H]1NC(=O)[C@@H](C)NC(=O)[C@@H]2CCCN2C(=O)[C@H](Cc2ccccc2)NC(=O)[C@H](Cc2ccc(O)cc2)NC(=O)[C@H](CCCCNC(=O)CN2CCN(CC(=O)O)CCN(CC(=O)O)CCN(CC(=O)O)CC2)NC(=O)[C@H](CC(=O)O)NC(=O)[C@@H](NC(=O)[C@H](CC(C)C)NC(=O)[C@H](CC(=O)O)NC(C)=O)CSSC[C@@H](C(N)=O)NC(=O)[C@H](CC(C)C)NC1=O [UPAR-432, Ac-Asp-Leu-[Cys-Asp-Lys(DOTA)-Tyr-Phe-Pro-ala-Ile-Leu-Cys]-NH2] (Ac-DLCDK(DOTA)YFP[dA]ILC-NH2; disulfide 3-12)	12.6 to 31.6 nM	10 to 100 nM

Results, then the compound that gave them:

IC50 [1]	Kd (human uPAR (uPAR-Fc))	SMILES
≥ 126 nM	> 100 nM	CCCCC(=O)N[C@H]1CSSC[C@@H](C(N)=O)NC(=O)[C@H](CCC)NC(=O)[C@H]([C@@H](C)CC)NC(=O)[C@@H]2C[C@@H](O)CN2C(=O)[C@@H]2CCCN2C(=O)[C@](C)(Cc2ccccc2)NC(=O)[C@H](Cc2ccc(O)cc2)NC(=O)[C@H](CCCCNC(=O)CN2CCN(CC(=O)O)CCN(CC(=O)O)CCN(CC(=O)O)CC2)NC(=O)[C@H](CCCNC(N)=O)NC1=O [UPAR-416, Pent-[Cys-Cit-Lys(DOTA)-Tyr-Amf-Pro-Hyp-Ile-Nva-Cys]-NH2] (Pentanoyl-C[Cit]K(DOTA)Y[αMeF]P[Hyp]I[Nva]C-NH2; disulfide 1-10)
≥ 126 nM	> 100 nM	CCCCC(=O)N[C@H]1CSSC[C@@H](C(N)=O)NC(=O)[C@H](CCC)NC(=O)[C@H]([C@@H](C)CC)NC(=O)[C@@H]2C[C@@H](O)CN2C(=O)[C@@H]2CCCN2C(=O)C2(Cc3ccccc3C2)NC(=O)[C@H](Cc2ccc(O)cc2)NC(=O)[C@H](CCCCNC(=O)CN2CCN(CC(=O)O)CCN(CC(=O)O)CCN(CC(=O)O)CC2)NC(=O)[C@H](CCCNC(N)=O)NC1=O [UPAR-417, Pent-[Cys-Cit-Lys(DOTA)-Tyr-Aic-Pro-Hyp-Ile-Nva-Cys]-NH2] (Pentanoyl-C[Cit]K(DOTA)Y[Aic]P[Hyp]I[Nva]C-NH2; disulfide 1-10)
12.6 to 31.6 nM	10 to 100 nM	CCCCC(=O)N[C@H]1CSSC[C@@H](C(N)=O)NC(=O)[C@H](CCC)NC(=O)[C@H]([C@@H](C)CC)NC(=O)[C@@H]2C[C@@H](O)CN2C(=O)C(C)(C)NC(=O)[C@H](Cc2ccccc2)NC(=O)[C@H](Cc2ccc(O)cc2)NC(=O)[C@H](CCCCNC(=O)CN2CCN(CC(=O)O)CCN(CC(=O)O)CCN(CC(=O)O)CC2)NC(=O)[C@H]([C@@H](C)O)NC1=O [UPAR-419, Pent-[Cys-Thr-Lys(DOTA)-Tyr-Phe-Aib-Hyp-Ile-Nva-Cys]-NH2] (Pentanoyl-CTK(DOTA)YF[Aib][Hyp]I[Nva]C-NH2; disulfide 1-10)
≤ 10 nM	< 1.58 nM	CCC[C@@H]1NC(=O)[C@H]([C@@H](C)CC)NC(=O)[C@@H](C)NC(=O)[C@@H]2CCCN2C(=O)[C@H](Cc2ccccc2)NC(=O)[C@H](Cc2ccc(O)cc2)NC(=O)[C@H](CCC(N)=O)NC(=O)[C@H](CCCNC(N)=O)NC(=O)[C@@H](NC(=O)CCC(C)C)CSSC[C@@H](C(N)=O)NC1=O [UPAR-429, iHex-[Cys-Cit-Gln-Tyr-Phe-Pro-ala-Ile-Nva-Cys]-NH2] ({Pentanoyl(4-Me)}-C[Cit]QYFP[dA]I[Nva]C-NH2; disulfide 1-10)
12.6 to 31.6 nM	1.58 to 10 nM	CCCCC(=O)N[C@H]1CSSC[C@@H](C(=O)NCCN)NC(=O)[C@H](CCC)NC(=O)[C@H]([C@@H](C)CC)NC(=O)[C@@H]2C[C@@H](O)CN2C(=O)[C@@H]2CCCN2C(=O)[C@H](Cc2ccccc2)NC(=O)[C@H](Cc2ccc(O)cc2)NC(=O)[C@H](CCC(N)=O)NC(=O)[C@H](CCCNC(N)=O)NC1=O [UPAR-430, Pent-[Cys-Cit-Gln-Tyr-Phe-Pro-Hyp-Ile-Nva-Cys]-en] (Pentanoyl-C[Cit]QYFP[Hyp]I[Nva]C-Ethylenediamine; disulfide 1-10)
